Results: patent publication US20250235543A1, “MODIFIED PROTEINS AND PROTEIN DEGRADERS” (Cullgen (Shanghai), Inc., priority 2021, published 2025)
Like-named read-outs stand apart in the source and are kept apart here.

Tests used:
[1] = biological target: T1, CDK4 (Homo sapiens, UniProt P11802); assay: CDK4 percentage degradation in Calu-1 cells (immunoblotting); type: cell-based; conditions: for inhibition at 0.2 µM: read-out: CDK4 Degradation (200 nM); for inhibition at 10 µM: read-out: CDK4 Degradation (10 μM)
T1 construct: endogenous in cells; host or cells: Calu-1
In short: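 Cultured cells were rinsed once in cold PBS and lysed in cold RIPA buffer containing protease and phosphatase inhibitors, with gentle agitation at 4° C. for 30 min. Lysates were centrifuged at 13,000 rpm for 10 min at 4° C., and protein was quantified by BCA. Samples were then separated by SDS-PAGE, detected with ECL, and the CDK4 bands quantified in Image Lab.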

[2] = system: cyclin D1; assay: Cyclin D1 percentage degradation in Calu-1 cells (immunoblotting); type: cell-based; conditions: 16 hours
In short: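 Cells were rinsed once in cold PBS and lysed in cold RIPA buffer containing protease and phosphatase inhibitors, with gentle agitation at 4° C. for 30 min. Lysates were spun at 13,000 rpm for 10 min at 4° C., protein was measured by BCA, and samples were boiled in Laemmli buffer at 99° C. for 5 min before SDS-PAGE immunoblotting.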

T1 sequence (P11802 2-303 limits assumed): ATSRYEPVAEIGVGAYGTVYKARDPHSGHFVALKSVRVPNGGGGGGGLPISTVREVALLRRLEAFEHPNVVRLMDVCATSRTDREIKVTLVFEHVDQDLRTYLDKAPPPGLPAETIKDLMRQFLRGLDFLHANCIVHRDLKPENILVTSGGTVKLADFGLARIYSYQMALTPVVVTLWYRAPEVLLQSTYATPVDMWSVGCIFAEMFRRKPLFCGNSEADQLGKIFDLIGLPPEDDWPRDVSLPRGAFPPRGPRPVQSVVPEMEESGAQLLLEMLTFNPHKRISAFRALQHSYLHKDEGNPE
T1 sequence (P24385 whole entry partner): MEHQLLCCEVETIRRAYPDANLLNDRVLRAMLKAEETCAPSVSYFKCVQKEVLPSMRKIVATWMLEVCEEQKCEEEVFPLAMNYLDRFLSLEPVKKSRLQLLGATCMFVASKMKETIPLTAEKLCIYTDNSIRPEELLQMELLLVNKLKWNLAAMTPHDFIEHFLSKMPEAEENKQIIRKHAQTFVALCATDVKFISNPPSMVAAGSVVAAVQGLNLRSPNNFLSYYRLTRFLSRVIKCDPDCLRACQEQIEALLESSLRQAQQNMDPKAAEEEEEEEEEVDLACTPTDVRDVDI
T1 sequence (Q16531 2-1140 limits assumed, further chain): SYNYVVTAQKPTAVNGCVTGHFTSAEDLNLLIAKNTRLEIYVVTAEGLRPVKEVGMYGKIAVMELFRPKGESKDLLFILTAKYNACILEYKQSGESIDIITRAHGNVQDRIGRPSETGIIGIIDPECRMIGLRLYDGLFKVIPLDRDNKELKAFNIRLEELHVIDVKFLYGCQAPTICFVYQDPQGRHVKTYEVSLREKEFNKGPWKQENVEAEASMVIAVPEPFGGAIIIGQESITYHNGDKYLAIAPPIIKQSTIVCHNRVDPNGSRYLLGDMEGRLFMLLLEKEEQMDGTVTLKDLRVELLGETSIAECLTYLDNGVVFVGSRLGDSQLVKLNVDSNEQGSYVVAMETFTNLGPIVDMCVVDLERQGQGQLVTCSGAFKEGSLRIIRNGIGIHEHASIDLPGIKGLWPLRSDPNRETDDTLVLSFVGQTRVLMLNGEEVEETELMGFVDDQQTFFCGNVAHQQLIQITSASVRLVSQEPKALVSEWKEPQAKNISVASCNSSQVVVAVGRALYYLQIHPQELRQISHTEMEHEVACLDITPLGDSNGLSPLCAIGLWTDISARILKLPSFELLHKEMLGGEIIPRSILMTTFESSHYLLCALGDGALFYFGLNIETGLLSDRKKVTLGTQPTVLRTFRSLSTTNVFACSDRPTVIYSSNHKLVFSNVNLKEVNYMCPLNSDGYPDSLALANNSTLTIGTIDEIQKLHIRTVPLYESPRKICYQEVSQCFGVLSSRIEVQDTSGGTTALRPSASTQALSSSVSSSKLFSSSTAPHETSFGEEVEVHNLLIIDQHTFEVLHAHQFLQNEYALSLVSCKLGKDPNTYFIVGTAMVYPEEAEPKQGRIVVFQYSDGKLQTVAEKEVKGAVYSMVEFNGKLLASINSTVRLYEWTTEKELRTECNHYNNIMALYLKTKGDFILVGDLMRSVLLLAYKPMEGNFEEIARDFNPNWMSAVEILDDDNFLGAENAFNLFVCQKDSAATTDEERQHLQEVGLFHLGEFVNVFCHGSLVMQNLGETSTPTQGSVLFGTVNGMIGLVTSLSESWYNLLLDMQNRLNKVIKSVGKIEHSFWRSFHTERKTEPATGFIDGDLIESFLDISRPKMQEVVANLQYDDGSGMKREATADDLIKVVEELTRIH

| Compound | inhibition at 0.2 µM ([1]; Calu-1 cells, 200 nM, 16 hours) | CyclinD1 Degradation (200 nM) [2] | inhibition at 10 µM ([1]; Calu-1 cells, 16 hours) | CyclinD1 Degradation (10 μM) [2] | inhibition at 0.2 µM ([1]; Calu-1, 16 h) |
| --- | --- | --- | --- | --- | --- |
| COc1cnc(NC(=O)c2ccc(NCCOCCOCCOCCOCCOCCNC(=O)CN3CCN(c4ccc(Nc5ncc6c(C)c(C(C)=O)c(=O)n(C7CCCC7)c6n5)nc4)CC3)cc2C)s1 [CPD-030, 4-((1-(4-(6-((6-Acetyl-8-cyclopentyl-5-methyl-7-oxo-7,8-dihydropyrido[2,3-d]pyrimidin-2-yl)amino)pyridin-3-yl)piperazin-1-yl)-2-oxo-6,9,12,15,18-pentaoxa-3-azaicosan-20-yl)amino)-N-(5-methoxythiazol-2-yl)-2-methylbenzamide] | 30 to 50% | B (protein percentage degradation <80%, and >=50%) | – | – | – |
| CC(=O)c1c(C)c2cnc(Nc3ccc(N4CCN(CC(=O)NCCCNc5cccc(C(=O)Nc6nc(C)c(C)s6)c5C)CC4)cn3)nc2n(C2CCCC2)c1=O [CPD-098, 3-((3-(2-(4-(6-((6-Acetyl-8-cyclopentyl-5-methyl-7-oxo-7,8-dihydropyrido[2,3-d]pyrimidin-2-yl)amino)pyridin-3-yl)piperazin-1-yl)acetamido)propyl)amino)-N-(4,5-dimethylthiazol-2-yl)-2-methylbenzamide] | < 30% | D (protein percentage degradation <30%) | – | – | – |
| Cc1nc(NC(=O)c2ccccc2NC(=O)CCOCCOCCNC(=O)CN2CCN(Cc3ccc(Nc4ncc(F)c(-c5cc(F)c6nc(C)n(C(C)C)c6c5)n4)nc3)CC2)sc1C [CPD-281, N-(4,5-Dimethylthiazol-2-yl)-2-(3-(2-(2-(2-(4-((6-((5-fluoro-4-(4-fluoro-1-isopropyl-2-methyl-1H-benzo[d]imidazol-6-yl)pyrimidin-2-yl)amino)pyridin-3-yl)methyl)piperazin-1-yl)acetamido)ethoxy)ethoxy)propanamido)benzamide] | – | – | < 30% | D (protein percentage degradation < 30%) | – |
| CC(=O)c1c(C)c2cnc(Nc3ccc(N4CCN(CC(=O)NCCOCCOCCC(=O)Nc5ccccc5C(=O)Nc5ccc(C(F)(F)F)cn5)CC4)cn3)nc2n(C2CCCC2)c1=O [CPD-084, 2-(3-(2-(2-(2-(4-(6-((6-Acetyl-8-cyclopentyl-5-methyl-7-oxo-7,8-dihydropyrido[2,3-d]pyrimidin-2-yl)amino)pyridin-3-yl)piperazin-1-yl)acetamido)ethoxy)ethoxy)propanamido)-N-(5-(trifluoromethyl)pyridin-2-yl)benzamide] | 50 to 80% | A (protein percentage degradation >=80%) | – | – | – |
| CC(=O)c1c(C)c2cnc(Nc3ccc(N4CCN(CC(=O)NCCCCCNc5cc(F)ccc5C(=O)Nc5ccc(N(C)C)nn5)CC4)cn3)nc2n(C2CCCC2)c1=O [CPD-372, 2-((5-(2-(4-(6-((6-Acetyl-8-cyclopentyl-5-methyl-7-oxo-7,8-dihydropyrido[2,3-d]pyrimidin-2-yl)amino)pyridin-3-yl)piperazin-1-yl)acetamido)pentyl)amino)-N-(6-(dimethylamino)pyridazin-3-yl)-4-fluorobenzamide] | 50 to 80% | A (protein percentage degradation >=80%) | – | – | – |
| Cc1nc(NC(=O)c2ccccc2NC(=O)CCOCCOCCOCCOCCOCCNC(=O)CN2CCN(c3ccc(Nc4ncc5cc6n(c5n4)C4(CCCCC4)CNC6=O)nc3)CC2)sc1C [CPD-326, N-(4,5-Dimethylthiazol-2-yl)-2-(2-oxo-1-(4-(6-((6′-oxo-7′,8′-dihydro-6′H-spiro[cyclohexane-1,9′-pyrazino[1′,2′:1,5]pyrrolo[2,3-d]pyrimidin]-2′-yl)amino)pyridin-3-yl)piperazin-1-yl)-6,9,12,15,18-pentaoxa-3-azahenicosan-21-amido)benzamide] | – | – | 50 to 80% | A (protein percentage degradation >= 80%) | – |
| CC(=O)c1c(C)c2cnc(Nc3ccc(N4CCN(CC(=O)NCCOCCOCCC(=O)Nc5ccccc5C(=O)Nc5ccc(OC6CC6)nn5)CC4)cn3)nc2n(C2CCCC2)c1=O [CPD-350, 2-(3-(2-(2-(2-(4-(6-((6-Acetyl-8-cyclopentyl-5-methyl-7-oxo-7,8-dihydropyrido[2,3-d]pyrimidin-2-yl)amino)pyridin-3-yl)piperazin-1-yl)acetamido)ethoxy)ethoxy)propanamido)-N-(6-cyclopropoxypyridazin-3-yl)benzamide] | 50 to 80% | A (protein percentage degradation >=80%) | – | – | – |
| CC(=O)c1c(C)c2cnc(Nc3ccc(N4CCN(CC(=O)NCCCNc5ccc(C)c(C(=O)Nc6nc(C)c(C)s6)c5)CC4)cn3)nc2n(C2CCCC2)c1=O [CPD-087, 5-((3-(2-(4-(6-((6-Acetyl-8-cyclopentyl-5-methyl-7-oxo-7,8-dihydropyrido[2,3-d]pyrimidin-2-yl)amino)pyridin-3-yl)piperazin-1-yl)acetamido)propyl)amino)-N-(4,5-dimethylthiazol-2-yl)-2-methylbenzamide] | < 30% | D (protein percentage degradation <30%) | – | – | – |
| CC(=O)c1c(C)c2cnc(Nc3ccc(N4CCN(CC(=O)NCCOCCNc5ccc(C)c(C(=O)Nc6nc(C)c(C)s6)c5)CC4)cn3)nc2n(C2CCCC2)c1=O [CPD-096, 5-((2-(2-(2-(4-(6-((6-Acetyl-8-cyclopentyl-5-methyl-7-oxo-7,8-dihydropyrido[2,3-d]pyrimidin-2-yl)amino)pyridin-3-yl)piperazin-1-yl)acetamido)ethoxy)ethyl)amino)-N-(4,5-dimethylthiazol-2-yl)-2-methylbenzamide] | < 30% | D (protein percentage degradation <30%) | – | – | – |
| CCc1nc(NC(=O)c2ccccc2NC(=O)CCOCCOCCNC(=O)CN2CCN(c3ccc(Nc4ncc5c(C)c(C(C)=O)c(=O)n(C6CCCC6)c5n4)nc3)CC2)sc1C [CPD-075, 2-(3-(2-(2-(2-(4-(6-((6-Acetyl-8-cyclopentyl-5-methyl-7-oxo-7,8-dihydropyrido[2,3-d]pyrimidin-2-yl)amino)pyridin-3-yl)piperazin-1-yl)acetamido)ethoxy)ethoxy)propanamido)-N-(4-ethyl-5-methylthiazol-2-yl)benzamide] | > 80% | A (protein percentage degradation >=80%) | – | – | – |
| CC(=O)c1c(C)c2cnc(Nc3ccc(N4CCN(C(=O)CCCCCNc5cccc(C(=O)Nc6nc(C)c(C)s6)c5C)CC4)cn3)nc2n(C2CCCC2)c1=O [CPD-137, 3-((6-(4-(6-((6-Acetyl-8-cyclopentyl-5-methyl-7-oxo-7,8-dihydropyrido[2,3-d]pyrimidin-2-yl)amino)pyridin-3-yl)piperazin-1-yl)-6-oxohexyl)amino)-N-(4,5-dimethylthiazol-2-yl)-2-methylbenzamide] | – | D (protein percentage degradation <30%) | – | – | < 30% |
| CC(=O)c1c(C)c2cnc(Nc3ccc(N4CCN(C(=O)CCOCCC(=O)Nc5ccccc5C(=O)Nc5nc(C)c(C)s5)CC4)cn3)nc2n(C2CCCC2)c1=O [CPD-181, 2-(3-(3-(4-(6-((6-Acetyl-8-cyclopentyl-5-methyl-7-oxo-7,8-dihydropyrido[2,3-d]pyrimidin-2-yl)amino)pyridin-3-yl)piperazin-1-yl)-3-oxopropoxy)propanamido)-N-(4,5-dimethylthiazol-2-yl)benzamide] | – | D (protein percentage degradation <30%) | – | – | < 30% |
| Cc1nc(NC(=O)c2ccccc2NC(=O)CCOCCOCCNC(=O)CN2CCN(c3ccc(Nc4ncc5cc(C(=O)N(C)C)n(C6CCCC6)c5n4)nc3)CC2)sc1C [CPD-295, 7-Cyclopentyl-2-((5-(4-(2-((2-(2-(3-((2-((4,5-dimethylthiazol-2-yl)carbamoyl)phenyl)amino)-3-oxopropoxy)ethoxy)ethyl)amino)-2-oxoethyl)piperazin-1-yl)pyridin-2-yl)amino)-N,N-dimethyl-7H-pyrrolo[2,3-d]pyrimidine-6-carboxamide] | – | – | 50 to 80% | A (protein percentage degradation >= 80%) | – |
| Cc1nc(NC(=O)c2ccccc2NC(=O)CCCCNC(=O)CN2CCN(Cc3ccc(Nc4ncc(F)c(-c5cc(F)c6nc(C)n(C(C)C)c6c5)n4)nc3)CC2)sc1C [CPD-275, N-(4,5-Dimethylthiazol-2-yl)-2-(5-(2-(4-((6-((5-fluoro-4-(4-fluoro-1-isopropyl-2-methyl-1H-benzo[d]imidazol-6-yl)pyrimidin-2-yl)amino)pyridin-3-yl)methyl)piperazin-1-yl)acetamido)pentanamido)benzamide] | – | – | < 30% | D (protein percentage degradation < 30%) | – |
| Cc1nc(NC(=O)c2ccccc2NC(=O)CCOCCOCCOCCOCCOCCOCCNC(=O)CN2CCN(c3ccc(Nc4ncc(F)c(-c5cc(F)c6nc(C)n(C(C)C)c6c5)n4)nc3)CC2)sc1C [CPD-313, N-(4,5-Dimethylthiazol-2-yl)-2-(1-(4-(6-((5-fluoro-4-(4-fluoro-1-isopropyl-2-methyl-1H-benzo[d]imidazol-6-yl)pyrimidin-2-yl)amino)pyridin-3-yl)piperazin-1-yl)-2-oxo-6,9,12,15,18,21-hexaoxa-3-azatetracosan-24-amido)benzamide] | – | – | < 30% | A (protein percentage degradation >= 80%) | – |
| CNC(=O)c1ccc(C)nc1NCCCCCCCNC(=O)CN1CCN(c2ccc(Nc3ncc4c(C)c(C(C)=O)c(=O)n(C5CCCC5)c4n3)nc2)CC1 [CPD-340] | < 30% | D (protein percentage degradation <30%) | – | – | – |
